In patent publication EP4360456A1, “PHYTOSANITARY FORMULATION” (Universidad de Almeria, priority 2021, dated 2022):
Read-outs that look alike come from different tables or passages of the source.

Tested on: fungus F. oxysporum
Assay: microbe, parasite or virus in culture
Format: cell-based
Conditions: for inhibition at 2000 µg/mL / inhibition at 5000 µg/mL / inhibition at 7500 µg/mL / inhibition at 10000 µg/mL: Fusarium oxysporum
Procedure: The % of inhibition is calculated with respect to the control based on the areas of growth of the fungus according to the following equation: % of inhibition with respect to FOM = 100−((AP)/(AC)*100) [formula] wherein: • AP: area of growth of the fungus in the target dish. • AC: Area of growth of the fungus in the control dish.

[1] = Concentration 2 g/L, Table 4 concentration screening, read-out: Percentages of inhibition
[2] = Concentration 5 g/L, Table 4 concentration screening, read-out: Percentages of inhibition
[3] = Concentration 7.5 g/L, Table 4 concentration screening, read-out: Percentages of inhibition
[4] = Concentration 10 g/L, Table 4 concentration screening, read-out: Percentages of inhibition
[5] = solution at 5 g/L, Table 3, read-out: % of inhibition

C[C@H](N)C(=O)O [Alanine, L-Alanine]
inhibition at 2000 µg/mL [1]: 9.24 ± 0.85%
inhibition at 5000 µg/mL [2]: 9.48 ± 1.06%
inhibition at 7500 µg/mL [3]: 13.3 ± 1.01%
inhibition at 10000 µg/mL [4]: 14.4 ± 0.87%
inhibition at 5000 µg/mL [5]: 9.23 ± 0.71%

N.O=CO [Ammonium formate]
% of inhibition (solution at 5 g/L, Table 3): 1.54 ± 0.15%

CCO [Ethanol]
inhibition at 5000 µg/mL (read-out: % of inhibition): 3.07 ± 0.45%

OCC(O)CO [Glycerol]
inhibition at 5000 µg/mL [5]: 1.85 ± 0.1%

N[C@@H](Cc1ccccc1)C(=O)O [Phenylalanine, L-Phenylalanine]
inhibition at 2000 µg/mL [1]: 17 ± 2.24%
inhibition at 5000 µg/mL [2]: 19.5 ± 1.85%
inhibition at 7500 µg/mL [3]: 19.2 ± 1.65%
inhibition at 10000 µg/mL [4]: 21.7 ± 1.74%
inhibition at 5000 µg/mL [5]: 16.1 ± 1.05%

CC(=O)O [Sodium acetate, Anhydrous sodium acetate]
inhibition at 5000 µg/mL (read-out: % of inhibition): 1.54 ± 0.05%

O=C[O-].[Na+] [Sodium formate]
Percentages of inhibition (Concentration 2 g/L, Table 4 concentration screening): 5.66 ± 0.41
Percentages of inhibition (Concentration 5 g/L, Table 4 concentration screening): 12.33 ± 0.98
Percentages of inhibition (Concentration 7.5 g/L, Table 4 concentration screening): 12.54 ± 1.54
Percentages of inhibition (Concentration 10 g/L, Table 4 concentration screening): 12.14 ±0.52
% of inhibition (solution at 5 g/L, Table 3): 13.38 ± 0.95%
